Where two headings read alike, the source gives them in different places.
Molecular target: T1, GPx4 embedded in a mmRM (membrane-bound GPx4) (Homo sapiens, UniProt P36969, U73G)
T1 construct: Truncated U46G-GPx4 with a TEV cleavable poly-histidine tag was inserted into vector; poly-histidine tag with TEV cleavage site; host or cells: BL21 (DE3) E. coli
T1 sequence (P36969 1-170 isoform P36969-2 U46G): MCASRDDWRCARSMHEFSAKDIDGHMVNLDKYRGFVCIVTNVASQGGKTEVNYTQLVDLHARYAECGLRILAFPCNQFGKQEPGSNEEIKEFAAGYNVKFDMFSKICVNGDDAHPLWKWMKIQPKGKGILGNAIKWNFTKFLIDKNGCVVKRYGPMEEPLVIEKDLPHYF
Assay: NMR (15N-HSQC) titration of fragments against GPx4 embedded in DLPC/DPC mmRM, apparent Kd
Format: binding
Conditions: ± standard error of global Kd fit
Excerpt: To assess whether the fragment hits are bound specifically to GPx4 and to calculate affinity, we performed NMR-based titrations. Chemical shift changes that approach saturation in a structurally localized manner target indicate specific binding.[24] This allows true positive hits to be separated from false positives and weak or nonspecific binders. Additionally, NMR-based titrations allow for the extraction of a binding affinity (Kd). To calculate apparent Kd values, CSP cutoffs were used to isolate the resonances with most shifting using 1 standard deviation above the average CSP. All 14 fragments identified from the deconvolutions were titrated up to 400 μM or 1 mM if needed. Of the 14, 9 had apparent Kds less than 1 mM and were identified as hits. Observed here is a 0.47% hit rate with best affinities in the μM range for the membrane-bound form of GPx4 and is consistent with ligandable and potentially druggable targets.[14],[57] […] The remaining five fragments, 10–14, were ruled out as weaker (>∼1 mM) or nonspecific binders. Weak or nonspecific binding could indicate that fragments partitioning to the mmRM surface and perturb the protein spectrum through a simple change in the chemical environment at the interface, among other possible nonspecific effects. […] We note that the weaker and nonspecific fragments were only eliminated due to interaction modes that are too weak or unproductive for advancement toward inhibitors; yet, binding was nevertheless detected. […] We note here that apparent Kd values reported in this study account for a total amount of fragment and protein within the mmRM sample and are not corrected for any potential concentrating effect due to localization of fragment to the mmRM surface or water phase.
NMR samples were prepared with ^15N-isotopically labeled protein with 10% v/v of d-pentane as the lock solvent (Sigma-Aldrich, St. Louis, MO). All NMR spectra were collected at 25 °C on a 700 MHz Bruker Avance III instrument. All NMR spectra were processed using NMRPipe[66] and analyzed using NMRFAM-Sparky.[67] Chemical shifts for GPx4 (BMRB 50955) were assigned from those previously published.[52] Chemical shift perturbations from ^15N-HSQC spectra were calculated using the following formula [drawing 1] where Δ^1H and Δ^15N are the changes in ^1H and ^15N chemical shifts, respectively.
The 14 fragments isolated from deconvolutions were purchased from Life Chemicals (fragments 1, 4, 6, and 11, and 12–14), Combi-Blocks (2, 3, 5, 9, and 10), or ChemBridge Hit2Lead (7 and 8). All fragment 1 and 5 analogues were also purchased from ChemBridge Hit2Lead. Fragments and analogues purchased from Life Chemicals and Hit2Lead are 90+% pure, while the fragments purchased from Combi-Blocks ranged from 95 to 97% pure. The day prior to the titration, a double-volume sample of encapsulated GPx4 was made before being split up into two separate vials. Half of the sample was added to the vial containing predried fragment corresponding to 400 μM or 1 mM. […] If they were, then the two samples were mixed to produce varying concentrations and to measure a titration curve. The top-shifting resonances were determined by calculating the average CSP at 400 μM or 1 mM and 1 and 2 standard deviations (σ) above that average. The CSP for the resonance at each fragment concentration was extracted and fit to a curve using an affinity equation that accounts for ligand depletion [drawing 2]
Any resonance producing a curve with an R^2 below 0.85 was removed, and the remaining resonances were then used to fit a global apparent Kd curve for the fragment hit. Standard error for Kd from the global fit of all of the selected residues is reported.

[1] = Table 2, analogues of fragment 5, GPx4 in mmRM, read-out: Apparent Kd
[2] = Table 1, GPx4 in DLPC/DPC mmRM, NMR titration up to 400 μM or 1 mM, read-out: Kd (apparent)

Structure (SMILES) | Kd [1] | Kd [2]
O=c1oc2c(-c3ccc(Cl)cc3)cc(O)cc2s1 [Analog 5.4] | 40 ± 20 µM | 
O=c1oc2c(-c3cccc(Cl)c3)cc(O)cc2s1 [Analog 5.6] | 25 ± 10 µM | 
Cc1ccc(-c2cc(O)cc3sc(=O)oc23)cc1Cl [Analog 5.7] | 15 ± 10 µM | 
NCCS(=O)(=O)c1ccccc1 [Fragment 3] |  | 140 ± 50 µM
COCC(=O)N1CCOc2ccccc2C1 [Fragment 4] |  | 140 ± 85 µM
Cc1cccc(-c2cc(O)cc3sc(=O)oc23)c1 [Analog 5.2] | > 400 µM | 
CC(=O)c1c(C)nn(CC(=O)O)c1C [Fragment 8] |  | 370 ± 165 µM
N#Cc1ccc(CC(=O)O)cc1 [Fragment 2] |  | 110 ± 65 µM
CCOC(=O)c1ccc(Cl)nn1 [Fragment 9] |  | 840 ± 300 µM
O=c1oc2c(-c3ccccc3)cc(O)cc2s1 [Analog 5.1] | > 400 µM | 
O=c1oc2c(-c3ccccc3Cl)cc(O)cc2s1 [Analog 5.3] | 85 ± 50 µM | 
NCc1nc(-c2ncccn2)no1 [Fragment 7] |  | 310 ± 100 µM

Source: paper PMC11267533, “Ligandability at the Membrane Interface of GPx4 Revealed through a Reverse Micelle Fragment Screening Platform” (JACS Au, 2024)
